Assays:
Assay type in all cases: cell-based
[1] = molecular target: T1, EGFR-L858R/C797S (H1975-clone #8 cells) (Homo sapiens, UniProt P00533, C797S/L858R); experiment: Cell degradation of EGFR, HTRF assay, H1975-clone#8 (L858R/C797S) cells; details: 16 h treatment; for DC50: EGFR degradation; for Dmax: maximum percentage of degradation
T1 construct: expressed in transfected cells; host or cells: H1975 (endogenous EGFR knocked out, clone #8)

[2] = molecular target: p-EGFR Del19/C797S (H1975-clone #23 cells) (Homo sapiens, UniProt P00533); experiment: Cell p-EGFR inhibition assay, HTRF, H1975-clone#23 (DEL19/C797S) cells; details: 16 h treatment; for Imax (%): maximum percentage of pEGFR inhibition; for IC50: pEGFR inhibition
Summary of the method: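 Phospho-EGFR read by overnight HTRF on lysates, normalized to DMSO-treated high control; IC50, Hill slope and Imax fitted. Compounds were applied for 16 h (10 uM top, 5-fold steps, 8 doses) to an H1975 single clone carrying only exogenous Del19/C797S EGFR after sgRNA knockout of endogenous copies.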

[3] = molecular target: T2, EGFR L858R (BaF3-L858R cells) (Homo sapiens, UniProt P00533, L858R); experiment: Cell degradation of EGFR, HTRF assay, BaF3-L858R cells; details: 16 h treatment; for DC50: EGFR degradation; for Dmax: maximum percentage of degradation
T2 construct: host or cells: BaF3
Summary of the method: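 BaF3-L858R cells treated 16 h at 37° C, 5% CO2 with compound (top 10 uM final, 5-fold, 8 doses, 0.1% DMSO). DC50 from four-parameter fit; Dmax is maximum percent degradation.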

[4] = molecular target: T3, p-EGFR L858R (BaF3-L858R cells) (Homo sapiens, UniProt P00533, L858R); experiment: Cell p-EGFR inhibition assay, HTRF, BaF3-L858R cells; details: 16 h treatment; for Imax (%): maximum percentage of pEGFR inhibition; for IC50: pEGFR inhibition
T3 construct: host or cells: BaF3
Summary of the method: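 BaF3-L858R cells treated 16 h at 37 °C, 5% CO2 with compound from 10 uM top, 5-fold dilutions, 8 doses, in 0.1% DMSO medium. Lysates read overnight by HTRF p-EGFR antibodies; IC50 fitted to four-parameter curve against DMSO high control.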

Structure (SMILES) | DC50 [1] [nM] | Dmax [1] [%] | Imax (%) [2] [%] | IC50 [2] [nM] | DC50 [3] [nM] | Dmax [3] [%] | Imax (%) [4] [%] | IC50 [4] [nM]
Cc1cc2cc(n1)-c1c(C)nn(C)c1OC[C@H]1CC[C@H](C1)CN1/C(=N/C2=O)Nc2ccc(N3CCN(C4CCN(c5cc(F)c([C@H]6CCC(=O)NC6=O)c(F)c5)CC4)[C@@H](CC#N)C3)cc21 [Example 163, 2-((S)-1-(1-(4-((R)-2,6-dioxopiperidin-3-yl)-3,5-difluorophenyl)piperidin-4-yl)-4-((7^1R,7^3S,E)-1^1,1^3,2^6-trimethyl-3-oxo-5^2,5^3-dihydro-1^1H,5^1H-9-oxa-4-aza-5(2,1)-benzo[d]imidazola-2(2,4)-pyridina-1(4,5)-pyrazola-7(1,3)-cyclopentanacyclononaphane-5^6-yl)piperazin-2-yl)acetonitrile] | 2.97 | 82.5 | 96.05 | 0.6 | 4.4 | 88.1 | 94.53 | 2.24
Cc1cc2cc(n1)-c1c(C)nn(C)c1OC[C@H]1CC[C@H](C1)CN1/C(=N/C2=O)Nc2ccc(N3CCN(C4CCN(c5cc(F)c([C@H]6CCC(=O)NC6=O)c(F)c5)CC4)C(=O)C3)cc21 [Example 164, (R)-3-(2,6-difluoro-4-(4-(2-oxo-4-((7^1R,7^3S,E)-1^1,1^3,2^6-trimethyl-3-oxo-5^2,5^3-dihydro-1^1H,5^1H-9-oxa-4-aza-5(2,1)-benzo[d]imidazola-2(2,4)-pyridina-1(4,5)-pyrazola-7(1,3)-cyclopentanacyclononaphane-5^6-yl)piperazin-1-yl)piperidin-1-yl)phenyl)piperidine-2,6-dione] | 1.19 | 88.7 | 96.95 | 0.254 | 2.79 | 92.7 | 94.91 | 1.85
COC[C@H]1CN(c2cc3c(cc2F)N/C2=N\C(=O)c4cc(C)nc(c4)-c4c(C)nn(C)c4OC[C@H]4CC[C@H](C4)CN23)CCN1C1CCN(c2cc(F)c([C@H]3CCC(=O)NC3=O)c(F)c2)CC1 [Example 165, (R)-3-(2,6-difluoro-4-(4-((R)-4-((7^1R,7^3S,E)-5^5-fluoro-1^1,1^3,2^6-trimethyl-3-oxo-5^2,5^3-dihydro-1^1H,5^1H-9-oxa-4-aza-5(2,1)-benzo[d]imidazola-2(2,4)-pyridina-1(4,5)-pyrazola-7(1,3)-cyclopentanacyclononaphane-5^6-yl)-2-(methoxymethyl)piperazin-1-yl)piperidin-1-yl)phenyl)piperidine-2,6-dione] | 4.45 | 88.7 | 94.62 | 1.34 | 3.32 | 91.1 | 93.3 | 4.83
Cc1cc2cc(n1)-c1c(C)nn(C)c1OC[C@H]1CC[C@H](C1)CN1/C(=N/C2=O)Nc2ccc(N3CCC(C)(CN(C)C4CCN(c5cc(F)c([C@H]6CCC(=O)NC6=O)c(F)c5)CC4)CC3)cc21 [Example 168, (R)-3-(2,6-difluoro-4-(4-(methyl((4-methyl-1-((7^1R,7^3S,E)-1^1,1^3′2^6-trimethyl-3-oxo-5^2′5^3-dihydro-1^1H,5^1H-9-oxa-4-aza-5(2,1)-benzo[d]imidazola-2(2,4)-pyridina-1(4,5)-pyrazola-7(1,3)-cyclopentanacyclononaphane-5^6-yl)piperidin-4-yl)methyl)amino)piperidin-1-yl)phenyl)piperidine-2,6-dione] | 3.07 | 81.1 | 102.22 | 2.56 | 2.96 | 80.9 | 100.64 | 8.76
COC[C@@H]1CN(c2cc3c(cc2F)N/C2=N\C(=O)c4cc(C)nc(c4)-c4c(C)nn(C)c4OC[C@H]4CC[C@H](C4)CN23)CCN1C1CCN(c2cc(F)c([C@H]3CCC(=O)NC3=O)c(F)c2)CC1 [Example 169, (R)-3-(2,6-difluoro-4-(4-((S)-4-((7^1R,7^3S,E)-5^5-fluoro-1^1,1^3,2^6-trimethyl-3-oxo-5^2,5^3-dihydro-1^1H,5^1H-9-oxa-4-aza-5(2,1)-benzo[d]imidazola-2(2,4)-pyridina-1(4,5)-pyrazola-7(1,3)-cyclopentanacyclononaphane-5^6-yl)-2-(methoxymethyl)piperazin-1-yl)piperidin-1-yl)phenyl)piperidine-2,6-dione] | 2.81 | 91.6 | 102.95 | 2.5 | 2.62 | 86.5 | 100.12 | 8.76
COC[C@H]1CN(c2cc3c(cc2C)N/C2=N\C(=O)c4cc(C)nc(c4)-c4c(C)nn(C)c4OC[C@H]4CC[C@H](C4)CN23)CCN1C1CCN(c2cc(F)c([C@H]3CCC(=O)NC3=O)c(F)c2)CC1 [Example 172, (R)-3-(2,6-difluoro-4-(4-((R)-2-(methoxymethyl)-4-((7^1R,7^3S,E)-1^1,1^3,2^6° 5^5-tetramethyl-3-oxo-5^2,5^3-dihydro-1^1H,5^1H-9-oxa-4-aza-5(2,1)-benzo[d]imidazola-2(2,4)-pyridina-1(4,5)-pyrazola-7(1,3)-cyclopentanacyclononaphane-5^6-yl)piperazin-1-yl)piperidin-1-yl)phenyl)piperidine-2,6-dione] | 0.909 | 85.6 | 103.44 | 2.74 | 5.09 | 84.8 | 100 | 6.2
COC[C@@H]1CN(c2cc3c(cc2C)N/C2=N\C(=O)c4cc(C)nc(c4)-c4c(C)nn(C)c4OC[C@H]4CC[C@H](C4)CN23)CCN1C1CCN(c2cc(F)c([C@H]3CCC(=O)NC3=O)c(F)c2)CC1 [Example 173, (R)-3-(2,6-difluoro-4-(4-((S)-2-(methoxymethyl)-4-((7^1R,7^3S,E)-1^1,1^3,2^6,5^5-tetramethyl-3-oxo-5^2,5^3-dihydro-1^1H,5^1H-9-oxa-4-aza-5(2,1)-benzo[d]imidazola-2(2,4)-pyridina-1(4,5)-pyrazola-7(1,3)-cyclopentanacyclononaphane-5^6-yl)piperazin-1-yl)piperidin-1-yl)phenyl)piperidine-2,6-dione] | 4.31 | 91.4 | 103.01 | 3.94 | 4.28 | 95.2 | 98.39 | 11.5
CCc1nn(C)c2c1-c1cc(cc(C)n1)C(=O)/N=C1\Nc3ccc(N4CCN(C5CCN(c6cc(F)c([C@H]7CCC(=O)NC7=O)c(F)c6)CC5)[C@@H](COC)C4)cc3N1C[C@@H]1CC[C@H](CO2)C1 [Example 175, (R)-3-(4-(4-((R)-4-((7^1R,7^3S,E)-1^3-ethyl-1^1,2^6-dimethyl-3-oxo-5^2,5^3-dihydro-1^1H,5^1H-9-oxa-4-aza-5(2,1)-benzo[d]imidazola-2(2,4)-pyridina-1(4,5)-pyrazola-7(1,3)-cyclopentanacyclononaphane-5^6-yl)-2-(methoxymethyl)piperazin-1-yl)piperidin-1-yl)-2,6-difluorophenyl)piperidine-2,6-dione] | 7.25 | 83.9 | 100.72 | 1.28 | 4.07 | 88.7 | 98.51 | 2.83
COC[C@H]1CN(c2ccc3c(c2)N2C[C@@H]4CC[C@H](COc5c(c(C)nn5C)-c5cc(cc(Cl)n5)C(=O)/N=C/2N3)C4)CCN1C1CCN(c2cc(F)c([C@H]3CCC(=O)NC3=O)c(F)c2)CC1 [Example 176, (R)-3-(4-(4-((R)-4-((7^1R,7^3S,E)-2^6-chloro-1^1,1^3-dimethyl-3-oxo-5^2,5^3-dihydro-1^1H,5^1H-9-oxa-4-aza-5(2,1)-benzo[d]imidazola-2(2,4)-pyridina-1(4,5)-pyrazola-7(1,3)-cyclopentanacyclononaphane-5^6-yl)-2-(methoxymethyl)piperazin-1-yl)piperidin-1-yl)-2,6-difluorophenyl)piperidine-2,6-dione] | 10.7 | 85.4 | 101.78 | 3.6 | 8.27 | 89 | 94.16 | 15.2
Cc1nn(C)c2c1-c1cc(cc(Cl)n1)C(=O)/N=C1\Nc3ccc(N4CCN(C5CCN(c6cc(F)c([C@H]7CCC(=O)NC7=O)c(F)c6)CC5)CC4)cc3N1C[C@@H]1CC[C@H](CO2)C1 [Example 179, (R)-3-(4-(4-(4-((7^1R,7^3S,E)-2^6-chloro-1^1,1^3-dimethyl-3-oxo-5^2,5^3-dihydro-1^1H,5^1H-9-oxa-4-aza-5(2,1)-benzo[d]imidazola-2(2,4)-pyridina-1(4,5)-pyrazola-7(1,3)-cyclopentanacyclononaphane-5^6-yl)piperazin-1-yl)piperidin-1-yl)-2,6-difluorophenyl)piperidine-2,6-dione] | 10.6 | 89.6 | 100.7 | 2.85 | 5.38 | 90.8 | 99.14 | 14.4

Source: patent US20240425523A1, “Compounds for the Degradation of EGFR Kinase” (Beigene Switzerland GMBH, priority 2023, published 2024)
